Several values for one entry are separate records, joined by “and”; a condition that tells them apart may be missing. Identical values can stand only once. Entries after “also recorded” stand apart in the source; their conditions may differ.
Columns and labels:
[1] = biological target: T1, NS3 (NS4A21`–33` binding site) (Hepatitis C virus genotype 4a, UniProt O39929); test: Fluorescence anisotropy (FA) competition assay with FITC-NS4A21`–33`; parameters: species or system HCV genotype 4a; settings: displacement of FITC-NS4A21`–33` (0.10 µM) from NS3, 480/520 nm, compounds 150 to 0.292 µM; for IC50: Competition IC50 ± SEM
T1 construct: NS3 protease domain 1–181 aa plus an N-terminal T7 tag and C-terminal His tag; made in house; host or cells: E. coli Rosetta (DE3) pLysS, vector pET-3a
Method: This assay measures the potency by which synthetic peptidomimetics affect the binding of labeled NS4A21`–33`. Before testing the MOC compounds, the binding affinity of fluorescein isothiocyanate NS4A21`–33` (FITC-NS4A21`–33`) was first determined (see Supplementary Material Figure S3) based on our previous work. For this particular protein batch, the optimal ratio to be used in the FA affinity test was calculated to be 0.5 µM NS3 and 0.1 µM FITC-NS4A21`–33`. Compounds that efficiently compete with NS4A21`–33` are expected to decrease the fluorescence emitted from NS3/FITC-4A21-34` mixture.
In a 96-well plate, we added a place binding buffer (20 mM HEPES, 10 mM DTT, 200 mM NaCl, pH 7.60) and a mixture of NS3 ([…]) and FITC-NS4A (0.10 µM) at the calculated affinity constant concentration. A serial dilution of MOC compounds (dissolved in 1.50% DMSO in binding buffer) (1/2 dilution starting from 150 to 0.292 µM) were mixed gently for 60 min in a dark place and the fluorescence was measured at excitation/emission wavelengths of 480/520 nm. The competition IC50 was calculated according to the recommended equation embedded in GraphPad Prism v. 8.0® and Instat® software.

NS3 domain = biological target: T2, NS3 domain (Hepatitis C virus genotype 4a, UniProt O39929); test: Differential static light scattering (DSLS) binding test; parameters: species or system HCV genotype 4a; settings: NS3 domain 15.0 µM with equimolar compound; for ΔTagg (liganded protein − free protein): 25.0 to 85.0 °C, n = 3; for ΔTagg as % of the positive control NS4A21`–33`: relative to NS4A21`–33`
T2 construct: NS3 protease domain 1–181 aa plus an N-terminal T7 tag and C-terminal His tag; made in house; host or cells: E. coli Rosetta (DE3) pLysS, vector pET-3a
Method: We studied the binding of MOC compounds with NS3 by differential static light scattering (DSLS). The NS3 domain stability upon binding to NS4A was measured by monitoring denatured protein aggregation upon increasing the temperature gradually from 25.0 to 85.0 °C (0.5 °C increments) at 600 nm. If a ligand binds to the protein, this increases a protein’s aggregation temperature (Tagg). DSLS provides an advantage of being a label-free binding assay technique and ΔTagg (of liganded protein−free protein) can be used to assess relative binding affinities of ligands. For NS3, the ΔTagg values that occurred upon binding of the MOC compounds were measured and compared to that of NS4A21`–33` as a positive control.
We studied the binding of NS4A and its mutants with NS3 by DSLS using Stargazer-2™ (Harbinger Biotechnology and Engineering Corporation, Toronto, Canada). This method assesses protein stability by monitoring aggregate formation using controlled, gradually elevated temperatures. The NS3 domain stability upon binding to NS4A was measured by monitoring denatured protein aggregation upon increasing the temperature from 25.0 to 85.0 °C (0.5 °C increments) at 600 nm. The Tagg values were calculated automatically from raw data using Stargazer-AIR® software. All experiments were repeated three times using the same batch of NS3 protein.
The NS3 domain (15.0 µM), alone or mixed with an equimolar equivalent of tested MOC derivative, was added to a binding buffer (20.0 mM HEPES, 10.0 mM DTT, 200 mM NaCl, pH 7.60) to a final volume 100 µL. The mixture was incubated at room temperature with gentle shaking for 2 h. Afterwards, 10 µL of the mixture was transferred into a clear bottomed Nunc 384-well plate and covered by 10 µL paraffin oil to minimize evaporation. Protein aggregation was monitored by tracking the change in scattered light that was detected by a charged coupled device (CCD) camera. Snapshot images of the plate were taken every 0.5 °C. The pixel intensities in a preselected region of each well were integrated using image analysis software to generate a value representative of the total amount of scattered light in that region. These intensities were then plotted against temperature for each sample well and fitted to obtain the aggregation temperature (Tagg). Aggregation was monitored and analyzed to assess the effect of NS4A and its synthetic analogues on the stability of the NS3 as an indicator of binding. Each experiment was repeated three times. Statistical analysis was performed using GraphPad Prism v. 8.0® and Instat® v. 3.10 software.

NS3 protease = biological target: T3, NS3 protease (Hepatitis C virus genotype 4a, UniProt O39929); test: Enzyme inhibition assay (SensoLyte 520 HCV Protease Assay Kit, modified); assay type: biochemical, HCV genotype 4a
T3 construct: NS3 protease domain 1–181 aa plus an N-terminal T7 tag and C-terminal His tag; made in house; host or cells: E. coli Rosetta (DE3) pLysS, vector pET-3a
Method: MOC-24 was selected for a qualitative testing for its inhibition of NS3 protease activity. Experiments were carried out using the SensoLyte® 520 HCV Protease Assay Kit. This assay measures the recovered fluorescence emitted upon cleavage of the labeled peptide substrate representing the NS4A/NS4B junction. Considering that NS3 without NS4A is almost a thousand-times less catalytic, the method was modified to suit the purpose of our allosteric inhibition assay. […] As a positive control, an equimolar mixture of NS4A with NS3 (equimolar, 2.00 µM each) caused only a 9-fold increase in the catalytic activity of the enzyme (Figure 5), which was far less than the reported value, possibly due to the large amount of protein used.
The assay was performed using SensoLyte-520® HCV protease assay kit fluorometric* (Anaspec, Fremont, CA, USA) according to a modified procedure to suit the purpose of determination of allosteric inhibition. NS3 (2.00 µM) was mixed with MOC-24 (4.00 µM) for 15.0 min. Afterwards, 5-FAM/QXL™520 fluorescence resonance energy transfer (FRET) peptide was added as instructed by the assay kit manual. […] In the FRET peptide, the fluorescence of 5-FAM is quenched by QXL™520. Upon cleavage into two separate fragments by HCV NS3/4A protease, the fluorescence of 5-FAM is recovered, and can be monitored at 490 nm/520 nm (excitation/emission). […]

[2] = biological target: HCV NS3 protease domain, genotype 4a (1-181 aa, N-terminal T7 tag, C-terminal His tag) (hepatitis C virus genotype 4a)

| Compound | IC50 [1] | ΔTagg (liganded protein − free protein) (NS3 domain) | melting point | further results |
| --- | --- | --- | --- | --- |
| CCCCCNC(=O)c1ncc(C(=O)NCC(=O)NC)[nH]1 [MOC-11, N^5-(2-(Methylamino)-2-oxoethyl)-N^2-(n-pentyl)-1H-imidazole-2,5-dicarboxamide] | 17.3 ± 1.22 µM | 0.82 °C | 87 °C | ΔTagg as % of the positive control NS4A21`–33` (NS3 domain): 54.6% |
| CCCCCNC(=O)c1ncc(C(=O)NCCCCNC(=N)N)[nH]1 [MOC-23, N^5-(4-Guanidinobutyl)-N^2-(n-pentyl)-1H-imidazole-2,5-dicarboxamide] | 4.7 ± 0.327 µM | 0.32 °C |  | ΔTagg as % of the positive control NS4A21`–33` (NS3 domain): 19.5% |
| CCCCCCNC(=O)c1ncc(C(=O)NCCCCNC(=N)N)[nH]1 [MOC-24, N^5-(4-Guanidinobutyl)-N^2-(n-hexyl)-1H-imidazole-2,5-dicarboxamide] | 1.9 µM and 1.91 µM | 0.60 °C |  | ΔTagg as % of the positive control NS4A21`–33` (NS3 domain): 39.8% and 40%; NS3 catalytic activity (NS3 protease; qualitative, NS3 2.00 µM, MOC-24 4.00 µM, 5-FAM/QXL520 FRET peptide): inhibited NS3 protease activity; also recorded: complete loss of NS3 catalytic activity |
| N=C(N)NCCCCNC(=O)c1cnc(C(=O)NCCOC2CCCCC2)[nH]1 [MOC-26, N^2-(2-(Cyclohexyloxy)ethyl)-N^5-(4-guanidinobutyl)-1H-imidazole-2,5-dicarboxamide] | > 100 µM |  |  |  |
| N=C(N)NCCCCNC(=O)c1cnc(C(=O)NCCCOC2CCCCC2)[nH]1 [MOC-27, N^2-(3-(Cyclohexyloxy)propyl)-N^5-(4-guanidinobutyl)-1H-imidazole-2,5-dicarboxamide] | > 100 µM |  |  |  |
| N=C(N)NCCCCNC(=O)c1cnc(C(=O)NCCOc2ccccc2)[nH]1 [MOC-28, N^5-(4-Guanidinobutyl)-N^2-(2-phenoxyethyl)-1H-imidazole-2,5-dicarboxamide] | > 100 µM |  | 137 to 139 °C |  |
| N=C(N)NCCCCNC(=O)c1cnc(C(=O)NCCCOc2ccccc2)[nH]1 [MOC-29, N^5-(4-Guanidinobutyl)-N^2-(3-phenoxypropyl)-1H-imidazole-2,5-dicarboxamide] | > 100 µM |  | 135 to 138 °C |  |
| CC(C)OCCCCNC(=O)c1ncc(C(=O)NCCCCNC(=N)N)[nH]1 [MOC-30, N^5-(4-Guanidinobutyl)-N^2-(4-isopropoxybutyl)-1H-imidazole-2,5-dicarboxamide] | 28.5 ± 8.55 µM |  |  |  |
| CC(C)CCCCCNC(=O)c1ncc(C(=O)NCCCCNC(=N)N)[nH]1 [MOC-31, N^5-(4-Guanidinobutyl)-N^2-(6-methylheptyl)-1H-imidazole-2,5-dicarboxamide] | 12.1 ± 1.69 µM |  | 83 to 84 °C |  |
| CCC(C)CCNC(=O)c1ncc(C(=O)NCCCCNC(=N)N)[nH]1 (centres unmarked) [MOC-32, N^5-(4-guanidinobutyl)-N^2-(3-methylpentyl)-1H-imidazole-2,5-dicarboxamide] | 7.7 µM and 7.74 µM |  |  |  |
| CCCCCCNC(=O)c1ncc(C(=O)NCc2ccccn2)[nH]1 [MOC-33, N^2-(n-Hexyl)-N^5-(pyridin-2-ylmethyl)-1H-imidazole-2,5-dicarboxamide] | 40.3 ± 24 µM | much weaker binding |  | Competition IC50 ± SEM [1]: much weaker binding |
| LL-G21SVVIVGRIVLSG33-LL [NS4A] |  |  |  | fold increase in the catalytic activity of the enzyme (NS3 protease; positive control, NS4A equimolar with NS3, 2.00 µM each): 9 fold |
| NS4A_(21`–33`) peptide, LL-G21…33-LL |  |  |  | NS3 protease activity (SensoLyte 520 HCV protease assay, 5-FAM/QXL520 FRET peptide); NS3 2.00 µM with NS4A 2.00 µM against NS3 alone [2]: 9 fold |
